Results: PubChem BioAssay (NCI)
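Test compounds were applied to cells in 96-well plates for 48 hours at 5 doses. GI50 = concentration required for 50% inhibition of growth. At the TGI there is no net growth.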

Experiments:
Assay in all cases: DTP human tumour cell line panel, 48 h
UACC-62 melanoma = tested on: UACC-62 melanoma
HCT-116 colon = tested on: HCT-116 colon
SR leukemia = tested on: SR leukemia
MCF7 breast = tested on: MCF7 breast
BT-549 breast = tested on: BT-549 breast
U251 CNS = tested on: U251 CNS
OVCAR-4 ovarian = tested on: OVCAR-4 ovarian
SN12C renal = tested on: SN12C renal
HCT-15 colon = tested on: HCT-15 colon
SW-620 colon = tested on: SW-620 colon

SMILES | GI50 (UACC-62 melanoma) | TGI (UACC-62 melanoma) | GI50 (HCT-116 colon) | TGI (HCT-116 colon) | GI50 (SR leukemia) | TGI (SR leukemia) | GI50 (MCF7 breast) | TGI (MCF7 breast) | GI50 (BT-549 breast) | TGI (BT-549 breast) | GI50 (U251 CNS) | TGI (U251 CNS) | GI50 (OVCAR-4 ovarian) | TGI (OVCAR-4 ovarian) | GI50 (SN12C renal) | TGI (SN12C renal) | GI50 (HCT-15 colon) | TGI (HCT-15 colon) | GI50 (SW-620 colon) | TGI (SW-620 colon)
CCN(CC)CCOc1ccc2c(-c3ccccc3)c(-c3ccc(OC)cc3)c(=O)oc2c1 | 3.82 µM | 15 µM | 2.78 µM | 10.5 µM | 1.62 µM | 4.33 µM | 4.33 µM | 14.1 µM | 6.16 µM | 19.4 µM | 4.51 µM | 20.9 µM | 4.8 µM | 18.1 µM | 10.8 µM | 23.9 µM | 2.64 µM | 8.18 µM | 2.14 µM | 5.76 µM
O=C(Nc1nc2ccc(OC(F)(F)F)cc2s1)c1ccc(F)cc1 | 3.59 µM | 50.3 µM | 2.98 µM | 10.1 µM | 3.68 µM | 14.1 µM | 2.12 µM | 18.2 µM | 3.76 µM | 54.6 µM | 3.98 µM | > 100 µM | 2.95 µM | > 100 µM | 2.58 µM | 8.21 µM | 3.04 µM | 10.5 µM | 3.74 µM | > 100 µM
N=C1C(c2nc3ccccc3c(=O)[nH]2)=C(O)CN1c1cccc(Cl)c1 | 3.27 µM | > 100 µM | 2.79 µM | > 100 µM | 0.302 µM | 2.68 µM | 4.19 µM | > 100 µM | 13.7 µM | > 100 µM | 2.22 µM | > 50 µM | > 23 µM | > 100 µM | 19.2 µM | > 100 µM | 1.51 µM | > 100 µM | 3.28 µM | > 100 µM
Cn1cc(Nc2nccc(-c3ccc4c(c3)CN(C3COC3)CC[C@H]4NC(=O)c3cn(C(C)(C)C)nn3)n2)cn1 | 23.1 µM | > 100 µM | 73.6 µM | > 100 µM | > 100 µM | > 100 µM | 41.4 µM | > 100 µM | > 100 µM | > 100 µM | > 100 µM | > 100 µM | > 100 µM | > 100 µM | 75.3 µM | > 100 µM | > 100 µM | > 100 µM | > 100 µM | > 100 µM
O=C1NC(=NCCc2ccccc2F)S/C1=C\c1ccc2ncccc2c1 | 7.1 µM | > 25 µM | 1.27 µM | > 25 µM | 0.88 µM | 8.83 µM | 1.68 µM | > 25 µM | 6.48 µM | > 25 µM | 4.69 µM | > 25 µM | 6.45 µM | > 20.6 µM | 8.18 µM | > 25 µM | 1.84 µM | > 25 µM | 2.73 µM | > 25 µM
Cc1cc2c(C(C)C)c(O)c(O)c(/C=N/O)c2c(O)c1-c1c(C)cc2c(C(C)C)c(O)c(O)c(/C=N/O)c2c1O | 2.15 µM | 5.23 µM | 2.41 µM | 12 µM | 3.22 µM | 13.5 µM | 2.52 µM | 12.2 µM | 2.42 µM | 13.8 µM | 1.89 µM | 11.8 µM | 1.33 µM | 9.69 µM | 4.34 µM | 18.5 µM | 2.35 µM | 13.4 µM | 2.94 µM | 12.3 µM
CC(=O)NC(CCc1ccc(Cl)c(Cl)c1)c1cccc(O)c(=O)c1 (stereo not given) | 0.619 µM | 1.98 µM | 0.315 µM | 15.2 µM | 0.622 µM | 31.1 µM | 0.412 µM | 37.4 µM | 0.803 µM | 12.8 µM | 0.428 µM | 11.5 µM | 0.302 µM | 40.4 µM | 0.485 µM | 13.1 µM | 0.131 µM | 19.6 µM | 0.531 µM | 23.7 µM
C=C1CC[C@@](C)(c2cc(Br)c(C)cc2OC(C)=O)[C@H]1C | 7.06 µM | 20.1 µM | 8.81 µM | 20.8 µM | 11.2 µM | 27.1 µM | 12.8 µM | 28 µM | 19 µM | 34.1 µM | 15.2 µM | 29.7 µM | 3.63 µM | 17.4 µM | 11.4 µM | 23.8 µM | 15.1 µM | 31.3 µM | 11.8 µM | 24.6 µM
COC(=O)COc1ccccc1/C=C1/N=C(c2ccccc2)N(c2c(C)n(C)n(-c3ccccc3)c2=O)C1=O | 83.9 µM | > 100 µM | > 100 µM | > 100 µM | 31.7 µM | > 100 µM | 43.4 µM | > 100 µM | 40.7 µM | > 100 µM | > 100 µM | > 100 µM | 75.1 µM | > 100 µM | > 100 µM | > 100 µM | > 100 µM | > 100 µM | > 100 µM | > 100 µM
CCc1nc(N)nc(N)c1-c1ccc(N2CCNCC2)c([N+](=O)[O-])c1 | – | > 100 µM | – | > 100 µM | – | > 100 µM | – | > 79.1 µM | – | > 100 µM | – | > 100 µM | – | > 100 µM | – | > 100 µM | – | > 100 µM | – | > 100 µM
